Experimental data reported in patent US20020137929A1, “1 - (3-heterocyclylphenyl) isothiourea, -isourea, -guanidine and -amidine herbicidal agents” (Intellectual Property Department, BASF Aktiengesellschaft, priority 1998, published 2002).

How the values were obtained:
[1] = tested on: GALAP (Galium); test: Postemergence herbicidal evaluation; format: in vivo, Galium aparine; conditions: postemergence
Method in brief: (§1)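 First, seedlings were raised for around two weeks. Next, test material in 50/50 acetone/water containing 0.5% TWEEN 20 was sprayed through a nozzle at 40 psi, equivalent to about 0.0156–0.500 kg/ha. Finally, after 4–5 weeks in the greenhouse, plants were rated 0–9.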

[2] = tested on: IPOHE (Morningglory, Ivyleaf); test: Postemergence herbicidal evaluation; format: in vivo, Ipomoea hederacea; conditions: postemergence
Method in brief: as §1

[3] = tested on: SETVI (Foxtail, Green); test: Postemergence herbicidal evaluation; format: in vivo, Setaria viridis; conditions: postemergence
Method in brief: as §1

[4] = tested on: TRZAWR (Wheat, Winter, cv Riband); test: Postemergence herbicidal evaluation; format: in vivo, Triticum aestivum; conditions: postemergence
Method in brief: as §1

[5] = tested on: ABUTH (Velvetleaf); test: Preemergence herbicidal evaluation; format: in vivo, Abutilon theophrasti; conditions: preemergence, rated 4-5 weeks after treatment, 0-9 scale
Method in brief: (§2)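 In this greenhouse assay, monocot and dicot seeds are planted in soil and treated prior to emergence with an aqueous acetone spray (about 0.0156-0.500 kg/ha). Plants are assessed visually against control on a 0-9 scale after 4-5 weeks.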

[6] = tested on: IPOHE (Morningglory, Ivyleaf); test: Preemergence herbicidal evaluation; format: in vivo, Ipomoea hederacea; conditions: preemergence, rated 4-5 weeks after treatment, 0-9 scale
Method in brief: as §2

[7] = tested on: ECHCG (Barnyardgrass); test: Preemergence herbicidal evaluation; format: in vivo, Echinochloa crus-galli; conditions: preemergence, rated 4-5 weeks after treatment, 0-9 scale
Method in brief: as §2

[8] = tested on: SETVI (Foxtail, Green); test: Preemergence herbicidal evaluation; format: in vivo, Setaria viridis; conditions: preemergence, rated 4-5 weeks after treatment, 0-9 scale
Method in brief: as §2

[9] = tested on: ZEAMX (Corn, Field); test: Preemergence herbicidal evaluation; format: in vivo, Zea mays; conditions: preemergence, rated 4-5 weeks after treatment, 0-9 scale
Method in brief: as §2

[10] = tested on: ECHORC (Watergrass (Calif.)); test: Preemergence weed control under flooded paddy conditions; format: in vivo, Echinochloa oryzoides; conditions: rated 3-4 weeks after treatment
Method in brief: (§3)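 Flooded-pot preemergence screen with silt loam and seeds in the upper 0.5 cm. Dose about 0.0313 to 0.500 kg/ha, delivered into flood water; visual 0-9 score after 3 to 4 weeks.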

[11] = tested on: CYPIR (Rice Flatsedge); test: as above; format: in vivo, Cyperus iria; conditions: rated 3-4 weeks after treatment
Method in brief: as §3

[12] = tested on: MOOVA (Monochoria); test: as above; format: in vivo, Monochoria vaginalis; conditions: rated 3-4 weeks after treatment
Method in brief: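 Silt loam, seeds in top 0.5 cm; flood held 1.5-3 cm; test cpd as acetone/water 50/50 into flood water, ~0.0313-0.500 kg/ha a.i.; greenhouse 3-4 wk; visual 0-9 score vs control.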

[13] = tested on: ECHORC (Watergrass (Calif.)); test: Postemergence weed control under flooded paddy conditions; format: in vivo, Echinochloa oryzoides; conditions: postemergence weeds, rated 3 to 4 weeks after treatment
Method in brief: (§4)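 With weeds 3 to 5 cm tall and rice at the 1.5 to 2.5 leaf stage, containers were flooded and water held 1.5 to 3 cm above soil. Compounds in 50/50 v/v aqueous/acetone went into the flood water at about 0.0313 to 0.500 kg/ha a.i. Effects were visually rated 0–9 against controls after three to four weeks in the greenhouse.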

[14] = tested on: SAGPY (Arrowhead (Pygmaea)); test: as above; format: in vivo, Sagittaria pygmaea; conditions: postemergence weeds, rated 3 to 4 weeks after treatment
Method in brief: as §4

In the case of `C=CCN1C(=O)C(CC(=O)NC)SC1=Nc1cc(-n2c(=O)cc(C(F)(F)F)n(C)c2=O)c(F)cc1Cl` (stereo not drawn) [Compound 84, 3-Allyl-2-{{2-chloro-5-[3,6-dihydro-3-methyl-2,6-dioxo-4-(trifluoromethyl)-1(2H)-pyrimidinyl]-4-fluorophenyl}imino}-N-methyl-4-oxo-5-thiazolidineacetamide], the GALAP herbicidal rating ([1]; rate 0.0156 kg/ha) is reported as 1.0, the GALAP herbicidal rating ([1]; rate 0.0313 kg/ha) is reported as 2.0 and the GALAP herbicidal rating ([1]; rate 0.0625 kg/ha) is reported as 4.0. The GALAP herbicidal rating ([1]; rate 0.1250 kg/ha) was 7.0, the IPOHE herbicidal rating ([2]; rate 0.0156 kg/ha) was 9.0 and the IPOHE herbicidal rating ([2]; rate 0.0313 kg/ha) was 9.0. The IPOHE herbicidal rating ([2]; rate 0.0625 kg/ha) was 9.0, the IPOHE herbicidal rating ([2]; rate 0.1250 kg/ha) was 9.0 and the SETVI herbicidal rating ([3]; rate 0.0156 kg/ha) was 0.0. It also gave an SETVI herbicidal rating ([3]; rate 0.0313 kg/ha) of 0.0, an SETVI herbicidal rating ([3]; rate 0.0625 kg/ha) of 0.0 and an SETVI herbicidal rating ([3]; rate 0.1250 kg/ha) of 2.0. For the same compound, the TRZAWR herbicidal rating ([4]; rate 0.0156 kg/ha) was 3.0, the TRZAWR herbicidal rating ([4]; rate 0.0313 kg/ha) was 3.5 and the TRZAWR herbicidal rating ([4]; rate 0.0625 kg/ha) was 4.5. The TRZAWR herbicidal rating ([4]; rate 0.1250 kg/ha) was 5.0, the ABUTH rating ([5]; 0.0156 kg/ha) was 2.0 and the ABUTH rating ([5]; 0.0313 kg/ha) was 2.0. For the same compound, the ABUTH rating ([5]; 0.0625 kg/ha) was 7.0, the ABUTH rating ([5]; 0.1250 kg/ha) was 9.0 and the ABUTH rating ([5]; 0.2500 kg/ha) was 9.0. For the same compound, the ABUTH rating ([5]; 0.5000 kg/ha) was 9.0, the IPOHE rating ([6]; 0.0156 kg/ha) was 0.0 and the IPOHE rating ([6]; 0.0313 kg/ha) was 0.0. For the same compound, the IPOHE rating ([6]; 0.0625 kg/ha) was 0.0, the IPOHE rating ([6]; 0.1250 kg/ha) was 1.0 and the IPOHE rating ([6]; 0.2500 kg/ha) was 9.0. For the same compound, the IPOHE rating ([6]; 0.5000 kg/ha) was 9.0, the ECHCG rating ([7]; 0.0156 kg/ha) was 0.0 and the ECHCG rating ([7]; 0.0313 kg/ha) was 0.0. The ECHCG rating ([7]; 0.0625 kg/ha) was 0.0, the ECHCG rating ([7]; 0.1250 kg/ha) was 0.0 and the ECHCG rating ([7]; 0.2500 kg/ha) was 2.0. It also gave an ECHCG rating ([7]; 0.5000 kg/ha) of 9.0, an SETVI rating ([8]; 0.0156 kg/ha) of 0.0 and an SETVI rating ([8]; 0.0313 kg/ha) of 0.0. The SETVI rating ([8]; 0.0625 kg/ha) was 0.0, the SETVI rating ([8]; 0.1250 kg/ha) was 3.0 and the SETVI rating ([8]; 0.2500 kg/ha) was 9.0. The SETVI rating ([8]; 0.5000 kg/ha) was 9.0, the ZEAMX rating ([9]; 0.0156 kg/ha) was 0.0 and the ZEAMX rating ([9]; 0.0313 kg/ha) was 0.0. For the same compound, the ZEAMX rating ([9]; 0.0625 kg/ha) was 0.0, the ZEAMX rating ([9]; 0.1250 kg/ha) was 5.0 and the ZEAMX rating ([9]; 0.2500 kg/ha) was 8.0. For the same compound, the ZEAMX rating ([9]; 0.5000 kg/ha) was 9.0, the “ECHORC herbicidal effect rating” value ([10]; 0.0313 kg/ha) was 4.0 and the “ECHORC herbicidal effect rating” value ([10]; 0.0625 kg/ha) was 5.0. For the same compound, the “ECHORC herbicidal effect rating” value ([10]; 0.1250 kg/ha) was 7.0, the “ECHORC herbicidal effect rating” value ([10]; 0.2500 kg/ha) was 9.0 and the “CYPIR herbicidal effect rating” value ([11]; 0.0313 kg/ha) was 3.0. For the same compound, the “CYPIR herbicidal effect rating” value ([11]; 0.0625 kg/ha) was 7.0, the “CYPIR herbicidal effect rating” value ([11]; 0.1250 kg/ha) was 9.0 and the “CYPIR herbicidal effect rating” value ([11]; 0.2500 kg/ha) was 9.0. The “MOOVA herbicidal effect rating” value ([12]; 0.0313 kg/ha) was 9.0, the “MOOVA herbicidal effect rating” value ([12]; 0.0625 kg/ha) was 9.0 and the “MOOVA herbicidal effect rating” value ([12]; 0.1250 kg/ha) was 9.0. For the same compound, the “MOOVA herbicidal effect rating” value ([12]; 0.2500 kg/ha) was 9.0, the “Herbicidal rating ECHORC” value ([13]; Rate 0.0313 kg/ha) was 4.0 and the “Herbicidal rating ECHORC” value ([13]; Rate 0.0625 kg/ha) was 5.0. For the same compound, the “Herbicidal rating ECHORC” value ([13]; Rate 0.1250 kg/ha) was 7.0, the “Herbicidal rating ECHORC” value ([13]; Rate 0.2500 kg/ha) was 9.0 and the “Herbicidal rating SAGPY” value ([14]; Rate 0.0313 kg/ha) was 2.0. The “Herbicidal rating SAGPY” value ([14]; Rate 0.0625 kg/ha) was 6.0, the “Herbicidal rating SAGPY” value ([14]; Rate 0.1250 kg/ha) was 7.0 and the “Herbicidal rating SAGPY” value ([14]; Rate 0.2500 kg/ha) was 9.0.
